Patent publication US20260317296A1, “HETEROCYCLIC COMPOUNDS FOR IMAGING AGGREGATED TAU IN TAUOPATHIES” (University of Pittsburgh - Of the Commonwealth System of …, priority 2023, published 2026)
Like-named read-outs stand apart in the source and are kept apart here. One block for each compound: values may come before it.

Experiments:
[1] = target: T1, aggregated 4R-tau in AD brain (Homo sapiens, UniProt P10636); test: Binding affinity (Kd) assay, AD brain homogenate; settings: for Kd: AD brain, Table 1
T1 construct: aggregated 4R-tau in human brain tissue samples from AD, PSP, and CBD patients; from tissue; host or cells: homogenized cortex of human AD brain

[2] = target: T2, aggregated 4R-tau in PSP brain (Homo sapiens, UniProt P10636); test: Binding affinity (Kd) assay, PSP brain homogenate; settings: for Kd: PSP brain, Table 1
T2 construct: aggregated 4R-tau in human brain tissue samples from AD, PSP, and CBD patients; from tissue; host or cells: homogenized cortex of human PSP brain

[3] = target: T3, aggregated 4R-tau in CBD brain (Homo sapiens, UniProt P10636); test: Binding affinity (Kd) assay, CBD brain homogenate; settings: for Kd: CBD brain, Table 1
T3 construct: aggregated 4R-tau in human brain tissue samples from AD, PSP, and CBD patients; from tissue; host or cells: homogenized cortex of human CBD brain

[4] = target: T4, aggregated 4R-tau in PSP tissue (Homo sapiens, UniProt P10636); test: In vitro competition (Ki) assay, PSP brain tissue homogenate; type: binding
T4 construct: autopsy-confirmed postmortem AD, PSP, and CBD human brain tissues; tissue UCSF Neurodegenerative Disease Brain Bank; host or cells: post-mortem human PSP brain homogenate

[5] = target: T5, aggregated 4R-tau in AD tissue (Homo sapiens, UniProt P10636); test: In vitro competition (Ki) assay, AD brain tissue homogenate; type: binding
T5 construct: autopsy-confirmed postmortem AD, PSP, and CBD human brain tissues; tissue UCSF Neurodegenerative Disease Brain Bank; host or cells: post-mortem human AD brain homogenate

alpha-synuclein = target: T6, alpha-synuclein (Homo sapiens, UniProt P37840); test: Homologous binding assay, Parkinson's Disease (PD) brain tissue
T6 construct: Parkinson's Disease (PD) post-mortem brain tissue; from tissue; host or cells: post-mortem Parkinson's Disease brain

[6] = target: T7, PiB binding site on amyloid-beta (Homo sapiens, UniProt P05067); test: Competition against [^3H]PiB in post-mortem human AD brain tissue
T7 construct: from tissue; host or cells: post-mortem human AD brain

[7] = test system: post-mortem human brain control tissue; test: Autoradiography, post-mortem control brain tissue; type: binding; settings: cingulate gyrus, 5 nM, self-blocking with 1 mM unlabeled 69
PSP brain tissue = test: Autoradiography, post-mortem PSP brain tissue; type: binding, human; settings: medial frontal cortex, 5 nM, self-blocking with 1 mM unlabeled 69
CBD brain tissue = test: Autoradiography, post-mortem CBD brain tissue; type: binding, human; settings: medial frontal cortex, 5 nM, self-blocking with 1 mM unlabeled 69
[8] = target: T8, Pick's Disease brain tissue (Homo sapiens, UniProt P10636); test: Homologous binding assay, Pick's Disease brain tissue; settings: post-mortem human Pick's Disease brain tissue
T8 construct: post-mortem human AD, PSP, CBD, and Pick's Disease brain tissue; from tissue; host or cells: post-mortem human Pick's Disease brain

AD brain tissue = test: Autoradiography, post-mortem AD brain tissue; type: binding, human; settings: medial frontal cortex, 5 nM, self-blocking with 1 mM unlabeled 69
P301L mouse brain tissue = target: T9, P301L mouse brain tissue (Homo sapiens, UniProt P10636, P618L); test: Homologous binding assay, P301L mouse brain tissue
T9 construct: from tissue; host or cells: brain tissue of P301L mouse

log D of radiotracer = type: physicochemical; settings: n=4
[9] = vs [^3H]2, n = 1, Ki=IC50/2, read-out: Inhibition Constant (Ki) versus [^3H]2
[10] = post-mortem human AD brain tissue
[11] = vs [^3H]1, n = 1, Ki=IC50/2, read-out: Inhibition Constant (Ki) versus [^3H]1

T1 sequence (P10636 1-441 isoform P10636-8): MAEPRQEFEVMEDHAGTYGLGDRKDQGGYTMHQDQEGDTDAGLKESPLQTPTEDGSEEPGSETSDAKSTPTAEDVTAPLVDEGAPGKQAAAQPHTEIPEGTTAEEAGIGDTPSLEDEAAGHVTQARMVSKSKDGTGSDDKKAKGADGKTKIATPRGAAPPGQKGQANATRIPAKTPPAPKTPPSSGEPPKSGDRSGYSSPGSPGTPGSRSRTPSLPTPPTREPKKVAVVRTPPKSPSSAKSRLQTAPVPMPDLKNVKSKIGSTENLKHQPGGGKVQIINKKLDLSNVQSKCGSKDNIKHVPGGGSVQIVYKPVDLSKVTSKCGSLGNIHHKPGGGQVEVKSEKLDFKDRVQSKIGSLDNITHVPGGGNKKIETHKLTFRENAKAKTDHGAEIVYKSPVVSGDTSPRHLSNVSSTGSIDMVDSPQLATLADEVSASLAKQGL
T1 sequence (P10636 1-410 isoform P10636-5): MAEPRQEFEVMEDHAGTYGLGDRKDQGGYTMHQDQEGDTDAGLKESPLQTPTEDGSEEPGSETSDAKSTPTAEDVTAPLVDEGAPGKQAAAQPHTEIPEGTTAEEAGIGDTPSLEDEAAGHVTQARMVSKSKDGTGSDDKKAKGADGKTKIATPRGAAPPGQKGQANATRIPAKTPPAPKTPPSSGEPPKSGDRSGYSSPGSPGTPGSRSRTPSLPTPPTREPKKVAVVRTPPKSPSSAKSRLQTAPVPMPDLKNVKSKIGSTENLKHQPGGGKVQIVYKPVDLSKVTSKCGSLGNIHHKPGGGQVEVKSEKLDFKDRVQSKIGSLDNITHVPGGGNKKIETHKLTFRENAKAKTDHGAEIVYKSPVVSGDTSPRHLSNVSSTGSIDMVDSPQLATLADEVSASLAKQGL
T2 sequence (P10636 1-441 isoform P10636-8): as the sequence (P10636 1-441 isoform P10636-8) above
T5 sequence (P10636 1-441 isoform P10636-8): as above
T5 sequence (P10636 1-410 isoform P10636-5): as the sequence (P10636 1-410 isoform P10636-5) above
T3 sequence (P10636 1-441 isoform P10636-8): as the sequence (P10636 1-441 isoform P10636-8) above
T4 sequence (P10636 1-441 isoform P10636-8): as above
T7 sequence (P05067 672-713 limits assumed): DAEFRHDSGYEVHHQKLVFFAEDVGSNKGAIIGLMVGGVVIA
T9 sequence (P10636 1-441 isoform P10636-8 P301L): as the sequence (P10636 1-441 isoform P10636-8) above, with P301L counted along it
T8 sequence (P10636 1-410 isoform P10636-5): as the sequence (P10636 1-410 isoform P10636-5) above

Kd [1]: 4 ± 3.1 nM
Kd [2]: 5.1 ± 1.2 nM
Kd [3]: 4.1 nM
Structure (SMILES): OC1CCN(c2ncc(-c3cc4ccc(F)cc4[nH]3)cn2)CC1 [[^3H]1]

Ki [4, 9]: 12 nM
Ki [5, 9]: 11 nM
Structure (SMILES): Fc1ccc2cc(-c3cnc(N4CCOCC4)cc3F)[nH]c2c1 [Compound 82, 4-(4-Fluoro-5-(6-fluoro-1H-indol-2-yl)pyridin-2-yl)morpholine]

specific binding by autoradiography [7]: Little to no specific binding
binding affinity (in words) [1, 10]: high affinity
specific binding by autoradiography (PSP brain tissue): Specific binding
binding affinity (in words) ([2]; post-mortem human PSP brain tissue): high affinity
specific binding by autoradiography (CBD brain tissue): Specific binding
Kd (alpha-synuclein; PD tissue, Table 7 (n = 4)): 110 ± 54 nM
binding affinity (in words) (alpha-synuclein; Parkinson's Disease (PD) post-mortem brain tissue): low affinity
binding affinity (in words) [8]: high affinity
specific binding by autoradiography (AD brain tissue): Specific binding
binding affinity (in words) (P301L mouse brain tissue): high affinity
binding affinity (in words) ([3]; post-mortem human CBD brain tissue): high affinity
Structure (SMILES): Fc1nc(N2CCOCC2)ccc1-c1cc2ccccc2[nH]1 [[^3H]69]

Ki [4, 9]: 20 nM
Ki [5, 9]: 17 nM
Structure (SMILES): Fc1ccc2cc(-c3ncc(N4CCOCC4)cc3F)[nH]c2c1 [Compound 98, 4-(5-Fluoro-6-(6-fluoro-1H-indol-2-yl)pyridin-3-yl)morpholine]

logD (log D of radiotracer): 1.96 ± 10
Structure (SMILES): [18F]c1nc(N2CCOCC2)ccc1-c1cc2ccccc2[nH]1 [[^18F]69, 4-(6-[^18F]Fluoro-5-(1H-indol-2-yl)pyridin-2-yl)morpholine]

Kd [1]: 1.2 ± 0.5 nM
Kd [2]: 1.6 ± 0.2 nM
Kd [3]: 1.7 ± 0.3 nM
Structure (SMILES): Fc1ccc2cc(-c3cnc(N4CCOCC4)nc3)[nH]c2c1 [[^3H]2]

Ki [4, 11]: 32 nM
Ki [5, 11]: 22 nM
Structure (SMILES): Cn1c(-c2cnc(N3CCOCC3)nc2)cc2ccc(F)cc21 [Compound 103, 4-(5-(6-Fluoro-1-methyl-1H-indol-2-yl)pyrimidin-2-yl)morpholine]

The next lines start with the compound.

Structure (SMILES): Fc1nc(N2CCOCC2)ccc1-c1cc2ccccc2[nH]1 [Compound 69, 4-(6-Fluoro-5-(1H-indol-2-yl)pyridin-2-yl)morpholine]
binding to alpha-synuclein (in words) (alpha-synuclein; concluded from PD brain tissue): does not bind strongly to alpha-synuclein
binding to the PiB binding site on amyloid-beta (in words) ([6]; concluded from competition against [^3H]PiB): does bind to the PiB binding site on amyloid-beta
competition against [^3H]PiB (in words) [6, 10]: does not compete well

Structure (SMILES): OC1CCN(c2ncc(-c3cc4cc(F)ccc4o3)cn2)CC1 [Compound 43, 1-(5-(5-Fluorobenzofuran-2-yl)pyrimidin-2-yl)piperidin-4-ol]
Ki [4, 11]: 91 nM
Ki [5, 11]: 45 nM

Structure (SMILES): OC1CCN(c2ncc(-c3cc4cc(F)ccc4[nH]3)cn2)CC1 [Compound 47, 1-(5-(5-Fluoro-1H-indol-2-yl)pyrimidin-2-yl)piperidin-4-ol]
Ki [4, 11]: 20 nM
Ki [5, 11]: 21 nM

Structure (SMILES): OC1CCN(c2ncc(-c3cc4ccccc4[nH]3)cn2)CC1 [Compound 46, 1-(5-(1H-Indol-2-yl)pyrimidin-2-yl)piperidin-4-ol]
Ki [4, 11]: 24 nM
Ki [5, 11]: 11 nM

Structure (SMILES): Fc1ccc2cc(-c3cnc(N4CCC(F)(F)CC4)nc3)[nH]c2c1 [Compound 17, 2-(2-(4,4-Difluoropiperidin-1-yl)pyrimidin-5-yl)-6-fluoro-1H-indole]
Ki [4, 11]: 23 nM
Ki [5, 11]: 37 nM
